# Laboratory results as given in US12134611B2, “Compounds and compositions for treating conditions associated with NLRP activity” (Novartis AG, priority 2018, dated 2024).
# Target: T1, hNLRP3 (Homo sapiens, UniProt Q96P20)
# T1 construct: THP-1 cells were purchased from the American Type Culture Collection; host or cells: THP-1 cells, PMA-differentiated, stimulated with gramicidin
# Test: IL-1β production in PMA-differentiated THP-1 cells stimulated with gramicidin (hTHP-1 assay)
# Type: cell-based
# Settings: read-out: NLRP3 Antagonist, hNLRP3 (THP-1, IL-1b) Normalized: GeoMean IC50
# T1 sequence (Q96P20 whole entry): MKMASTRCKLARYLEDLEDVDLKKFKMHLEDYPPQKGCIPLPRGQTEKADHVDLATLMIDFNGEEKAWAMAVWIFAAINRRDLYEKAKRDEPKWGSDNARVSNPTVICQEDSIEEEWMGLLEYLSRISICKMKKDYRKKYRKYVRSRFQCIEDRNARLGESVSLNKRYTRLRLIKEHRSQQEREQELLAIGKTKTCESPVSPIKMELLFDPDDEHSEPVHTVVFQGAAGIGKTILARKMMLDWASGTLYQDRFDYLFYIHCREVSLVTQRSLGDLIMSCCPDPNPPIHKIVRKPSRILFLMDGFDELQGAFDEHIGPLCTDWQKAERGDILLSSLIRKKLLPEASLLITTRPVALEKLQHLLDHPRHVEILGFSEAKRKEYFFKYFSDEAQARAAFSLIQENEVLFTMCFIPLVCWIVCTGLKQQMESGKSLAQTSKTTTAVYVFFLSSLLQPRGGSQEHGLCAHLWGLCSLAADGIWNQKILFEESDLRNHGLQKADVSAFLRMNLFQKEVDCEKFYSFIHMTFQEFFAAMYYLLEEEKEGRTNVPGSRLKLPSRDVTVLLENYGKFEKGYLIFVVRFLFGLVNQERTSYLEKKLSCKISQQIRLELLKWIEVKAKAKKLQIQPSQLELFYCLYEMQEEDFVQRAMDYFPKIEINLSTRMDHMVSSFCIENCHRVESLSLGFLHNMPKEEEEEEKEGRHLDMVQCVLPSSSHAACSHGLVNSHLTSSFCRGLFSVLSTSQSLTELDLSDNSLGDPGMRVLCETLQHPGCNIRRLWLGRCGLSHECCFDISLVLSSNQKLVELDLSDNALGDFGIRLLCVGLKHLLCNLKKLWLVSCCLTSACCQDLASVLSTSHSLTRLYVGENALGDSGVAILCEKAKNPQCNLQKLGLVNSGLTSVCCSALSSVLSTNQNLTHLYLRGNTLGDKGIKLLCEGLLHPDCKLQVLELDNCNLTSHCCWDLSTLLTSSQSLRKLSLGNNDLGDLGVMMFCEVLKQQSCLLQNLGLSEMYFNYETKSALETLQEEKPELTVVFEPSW
row,SMILES,IC50 [µM]
1,"CC(C)(O)c1ccc2c(c1)C(=O)NS2(=O)=NC(=O)Nc1c2c(cc3c1CCC3)CCC2 (stereo not shown) [Compound 121, 1-(1,2,3,5,6,7-hexahydro-s-indacen-4-yl)-3-(5-(2-hydroxypropan-2-yl)-1-oxido-3-oxo-2,3-dihydro-1l4-benzo[d]isothiazol-1-ylidene)urea]",0.2 to 1
2,CC(C)c1cc(C(F)F)cc(C(C)C)c1CC(=O)N=S1(=O)NC(=O)c2ccccc21 (stereo not shown) [Compound 123a],> 30
3,"CC(C)c1cc(C(F)F)cc(C(C)C)c1CC(=O)N=S1(=O)NC(=O)c2cc(CN(C)C)ccc21 (stereo not shown) [Compound 124, 2-[4-(difluoromethyl)-2,6-bis(propan-2-yl)phenyl]-N-{5-[(dimethylamino)methyl]-1,3-dioxo-2,3-dihydro-1$l6,2-benzothiazol-1-ylidene}acetamide]",> 30
4,"O=C(N=S1(=O)CC2(COC2)C(=O)N1)Nc1c2c(cc3c1CCC3)CCC2 (stereo not shown) [Compound 132, 1-(1,2,3,5,6,7-hexahydro-s-indacen-4-yl)-3-(6-oxido-8-oxo-2-oxa-6l6-thia-7-azaspiro[3.4]octan-6-ylidene)urea]",1 to 5
5,"CN(C)Cc1ccc2c(c1)S(=O)(=NC(=O)Nc1c3c(cc4c1CCC4)CCC3)NC2 (stereo not shown) [Compound 133, 1-(6-((dimethylamino)methyl)-1-oxido-2,3-dihydro-1l4-benzo[d]isothiazol-1-ylidene)-3-(1,2,3,5,6,7-hexahydro-s-indacen-4-yl)urea]",5 to 30
6,"COC(=O)c1ccc2c(c1)S(=O)(=NC(=O)Nc1c3c(cc4c1CCC4)CCC3)NC2=O (stereo not shown) [Compound 134, methyl 1-(((1,2,3,5,6,7-hexahydro-s-indacen-4-yl)carbamoyl)imino)-3-oxo-2,3-dihydro-1H-1l4-benzo[d]isothiazole-6-carboxylate 1-oxide]",5 to 30
7,"COC(=O)Cc1ccc2c(c1)S(=O)(=NC(=O)Nc1c3c(cc4c1CCC4)CCC3)NC2=O (stereo not shown) [Compound 209, methyl 2-(1-(((1,2,3,5,6,7-hexahydro-s-indacen-4-yl)carbamoyl)imino)-1-oxido-3-oxo-2,3-dihydro-1H-1l4-benzo[d]isothiazol-6-yl)acetate]",5 to 30
8,"O=C(N=S1(=O)NC(=O)c2ccc(-n3cccn3)cc21)Nc1c2c(cc3c1CCC3)CCC2 (stereo not shown) [Compound 211, 1-(1,2,3,5,6,7-hexahydro-s-indacen-4-yl)-3-(1-oxido-3-oxo-6-(1H-pyrazol-1-yl)-2,3-dihydro-1l4-benzo[d]isothiazol-1-ylidene)urea]",> 30
9,"CNC(=O)c1ccc2c(c1)S(=O)(=NC(=O)Nc1c3c(cc4c1CCC4)CCC3)NC2=O (stereo not shown) [Compound 213, 1-(((1,2,3,5,6,7-hexahydro-s-indacen-4-yl)carbamoyl)imino)-N-methyl-3-oxo-2,3-dihydro-1H-1l4-benzo[d]isothiazole-6-carboxamide 1-oxide]",1 to 5
10,"CN(C)C(=O)c1ccc2c(c1)S(=O)(=NC(=O)Nc1c3c(cc4c1CCC4)CCC3)NC2=O (stereo not shown) [Compound 214, 1-(((1,2,3,5,6,7-hexahydro-s-indacen-4-yl)carbamoyl)imino)-N,N-dimethyl-3-oxo-2,3-dihydro-1H-1l4-benzo[d]isothiazole-6-carboxamide 1-oxide]",5 to 30
11,"COCc1ccc2c(c1)S(=O)(=NC(=O)Nc1c3c(cc4c1CCC4)CCC3)NC2=O (stereo not shown) [Compound 217, 1-(1,2,3,5,6,7-hexahydro-s-indacen-4-yl)-3-(6-(methoxymethyl)-1-oxido-3-oxo-2,3-dihydro-1l4-benzo[d]isothiazol-1-ylidene)urea]",0.2 to 1

# The remaining lines, values ahead:
row,IC50 [µM],SMILES
1,5 to 30,"CN(C)Cc1ccc2c(c1)CNS2(=O)=NC(=O)Nc1c2c(cc3c1CCC3)CCC2 (stereo not shown) [Compound 122, 1-{5-[(dimethylamino)methyl]-1-oxo-2,3-dihydro-1$l6,2-benzothiazol-1-ylidene}-3-(1,2,3,5,6,7-hexahydro-s-indacen-4-yl)urea]"
2,5 to 30,"CN(C)Cc1ccc2c(c1)C(=O)NS2(=O)=NC(=O)Nc1c2c(cc3c1CCC3)CCC2 (stereo not shown) [Compound 125, 1-{5-[(dimethylamino)methyl]-1,3-dioxo-2,3-dihydro-1$l6,2-benzothiazol-1-ylidene}-3-(1,2,3,5,6,7-hexahydro-s-indacen-4-yl)urea]"
3,> 30,"CC(C)(O)c1ccc2c(c1)S(=O)(=NC(=O)Nc1c3c(cc4c1CCC4)CCC3)NC2 (stereo not shown) [Compound 126, 1-(1,2,3,5,6,7-hexahydro-s-indacen-4-yl)-3-[6-(2-hydroxypropan-2-yl)-1-oxo-2,3-dihydro-1-^λ-6,2-benzothiazol-1-ylidene]urea]"
4,5 to 30,"O=C(Nc1c2c(cc3c1CCC3)CCC2)NS1(=O)=NC(=O)c2ccc(Cl)cc21 (stereo not shown) [Compound 128, 3-(6-chloro-1,3-dioxo-2,3-dihydro-1-^λ-6,2-benzothiazol-1-ylidene)-1-(1,2,3,5,6,7-hexahydro-s-indacen-4-yl)urea]"
5,> 30,O=C(N=S1(=O)CC2(CN1)COC2)Nc1c2c(cc3c1CCC3)CCC2 (stereo not shown) [Compound 139b]
6,0.2 to 1,"O=C(N=S1(=O)NC(=O)c2ccc(CN3CCC3)cc21)Nc1c2c(cc3c1CCC3)CCC2 (stereo not shown) [Compound 204, 1-(6-(azetidin-1-ylmethyl)-1-oxido-3-oxo-2,3-dihydro-1l4-benzo[d]isothiazol-1-ylidene)-3-(1,2,3,5,6,7-hexahydro-s-indacen-4-yl)urea]"
7,5 to 30,"C=C(C)c1ccc2c(c1)S(=O)(=NC(=O)Nc1c3c(cc4c1CCC4)CCC3)NC2=O (stereo not shown) [Compound 207, 1-(1,2,3,5,6,7-hexahydro-s-indacen-4-yl)-3-(1-oxido-3-oxo-6-(prop-1-en-2-yl)-2,3-dihydro-1l4-benzo[d]isothiazol-1-ylidene)urea]"
8,0.04 to 0.2,"CC(O)(CO)c1ccc2c(c1)S(=O)(=NC(=O)Nc1c3c(cc4c1CCC4)CCC3)NC2=O (stereo not shown) [Compound 208, 1-(6-(1,2-dihydroxypropan-2-yl)-1-oxido-3-oxo-2,3-dihydro-1l4-benzo[d]isothiazol-1-ylidene)-3-(1,2,3,5,6,7-hexahydro-s-indacen-4-yl)urea]"
9,0.2 to 1,"O=C(N=S1(=O)NC(=O)c2ccc(CO)cc21)Nc1c2c(cc3c1CCC3)CCC2 (stereo not shown) [Compound 216, 1-(1,2,3,5,6,7-hexahydro-s-indacen-4-yl)-3-(6-(hydroxymethyl)-1-oxido-3-oxo-2,3-dihydro-1l4-benzo[d]isothiazol-1-ylidene)urea]"
10,0.2 to 1,"O=C(N=S1(=O)NC(=O)c2ccc(CNCC3CC3)cc21)Nc1c2c(cc3c1CCC3)CCC2 (stereo not shown) [Compound 218, 1-(6-(((cyclopropylmethyl)amino)methyl)-1-oxido-3-oxo-2,3-dihydro-1l4-benzo[d]isothiazol-1-ylidene)-3-(1,2,3,5,6,7-hexahydro-s-indacen-4-yl)urea]"
11,5 to 30,"O=C(N=S1(=O)NC(=O)c2cccnc21)Nc1c2c(cc3c1CCC3)CCC2 (stereo not shown) [Compound 223, 1-(1,2,3,5,6,7-hexahydro-s-indacen-4-yl)-3-(1-oxido-3-oxo-2,3-dihydro-1l4-isothiazolo[5,4-b]pyridin-1-ylidene)urea]"
12,5 to 30,"CC(C)(O)c1cc2c(s1)S(=O)(=NC(=O)Nc1c3c(cc4c1CCC4)CCC3)NC2=O (stereo not shown) [Compound 229, 1-(1,2,3,5,6,7-hexahydro-s-indacen-4-yl)-3-(5-(2-hydroxypropan-2-yl)-1-oxido-3-oxo-2,3-dihydro-1l4-thieno[3,2-d]isothiazol-1-ylidene)urea]"
13,0.2 to 1,"CC(C)(O)c1cccc(C2CC(=O)NS2(=O)=NC(=O)Nc2c3c(cc4c2CCC4)CCC3)c1 (stereo not shown) [Compound 253, 1-(1,2,3,5,6,7-hexahydro-s-indacen-4-yl)-3-(5-(3-(2-hydroxypropan-2-yl)phenyl)-1-oxido-3-oxo-1l6-isothiazolidin-1-ylidene)urea]"
14,5 to 30,"O=C(N=S1(=O)CCC(Cc2ccccc2)C(=O)N1)Nc1c2c(cc3c1CCC3)CCC2 (stereo not shown) [Compound 266, 1-(4-benzyl-1-oxido-3-oxo-1l6,2-thiazinan-1-ylidene)-3-(1,2,3,5,6,7-hexahydro-s-indacen-4-yl)urea]"
